“And” between values parts separate entries of the source, which are not always exact repeats. Identical values can stand only once. Bounds are passed on as bounds.

One test deals with KRAS WT (Homo sapiens (Human), UniProt P01116+P62937). Kind of test: Ras-Raf disruption/FRET/MOA assay (BRAF RBD, Cyclophilin A). In kind it is biochemical. To be noted: read-out: KRAS WT FRET data IC50. A digest of the protocol:
(§1)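 First, 25 μM Cyclophilin A, 12.5 nM His6-Ras-GMPPNP and 50 nM GST-BRAF RBD are mixed with diluted compound at pH 7.3. Next, 3 h at 25° C. Then 10 nM anti-His Eu-W1024 plus 50 nM anti-GST allophycocyanin for 1.5 h before TR-FRET reading.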

Another test has as its target KRAS G12D (Homo sapiens (Human), UniProt P01116+P62937, G12D). The description is as above. It is filed as biochemical. To be noted: read-out: KRAS G12D FRET IC50. A digest of the protocol: as §1
In a further test the target is KRAS G12V (Homo sapiens (Human), UniProt P01116+P62937, G12V). The test is described as above. In kind it is biochemical. To be noted: read-out: KRAS G12V FRET IC50. A digest of the protocol: as §1
Another test addresses KRAS G12S (Homo sapiens (Human), UniProt P01116+P62937, G12S). The description is as above. The note with it: read-out: KRAS G12S FRET IC50. It is filed as biochemical. A digest of the protocol: as §1
Another test addresses NRAS Q61R (Homo sapiens (Human), UniProt P01111+P62937, Q61R). Described as above. In kind it is biochemical. A digest of the protocol: (§2)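 TR-FRET readout: anti-His Eu-W1024 (10 nM) and anti-GST allophycocyanin (50 nM) added after 3 h, 25° C compound incubation, then 1.5 h more. Decrease in FRET ratio versus DMSO wells marks Ras:RAF disruption; IC50 reported.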
In the next test the target is KRAS G12C (Homo sapiens (Human), UniProt P01116+P62937, G12C). The description is as above. To be noted: read-out: KRAS G12C FRET IC50. In kind it is biochemical. A digest of the protocol:
as §1

The target of another test is KRAS G13D (Homo sapiens (Human), UniProt P01116+P62937, G13D). Described as above. In kind it is biochemical. The note with it: read-out: KRAS G13D FRET data IC50. A digest of the protocol:
as §1

The next test concerns the target NRAS G12C (Homo sapiens (Human), UniProt P01111+P62937, G12C). The description is as above. In kind it is biochemical. To be noted: read-out: NRAS G12C FRET data IC50. A digest of the protocol:
as §2

In another test the target is KRAS Q61H (Homo sapiens (Human), UniProt P01116+P62937, Q61H). The test is described as above. In kind it is biochemical. A digest of the protocol:
as §1

For a further test, the target named is NRAS Q61K (Homo sapiens (Human), UniProt P01111+P62937, Q61K). The test is described as above. In kind it is biochemical. A digest of the protocol: as §2
Another test concerns the target NRAS WT (Homo sapiens (Human), UniProt P01111+P62937). Described as above. In kind it is biochemical. A digest of the protocol:
as §2

The next test concerns the target KRAS G13C (Homo sapiens (Human), UniProt P01116+P62937, G13C). The test is described as above. It is filed as biochemical. The note with it: read-out: KRAS G13C FRET IC50. A digest of the protocol: as §1
Another test relates to NCI-H358 (K-Ras G12C). Briefly: CellTiter-Glo cell viability assay, NCI-H358. It is filed as cell-based, human. To be noted: Homo sapiens, NCI-H358, 120 h, 5-day treatment; read-out: H358 Cell Viability assay data (K-Ras G12C, IC50). A digest of the protocol: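 Cells seeded, compound added directly to plates; day 5: plates to RT ~30 min, CellTiter-Glo luminescence; (sample/avg DMSO)*100; 4-parameter fit.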
(In general: ATP-based viability assays read luminescence as a measure of living cells.)

The test system of test [1] is Capan-1 cells (K-Ras G12V). Kind of test: CellTiter-Glo cell viability, Capan-1. In kind it is cell-based, human. To be noted: Homo sapiens, CAPAN-1, 120 h, K-Ras G12V, 5-day treatment; read-out: Capan-1 Cell Viability IC50. A digest of the protocol: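 Cells seeded, compound dispensed straight into wells, 5-day exposure. Plates brought to room temperature ~30 min, CellTiter-Glo luminescence measured. Normalized to DMSO (%), 4-parameter logistic fit.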

Test [2] deals with K-Ras G12C(GMP-PNP) binding to BRAF RBD (Homo sapiens (Human), UniProt P01116+P62937, G12C). Briefly: Disruption of BRAF RBD interaction with K-Ras (FRET / MOA assay), K-Ras G12C. It is filed as biochemical. The note with it: read-out: KRAS G12C FRET IC50. A digest of the protocol: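 Cpd 10-pt 3-fold dilution, top 30 μM final; Ras/CypA/BRAF RBD mix 3 h, 25° C. Add anti-His Eu-W1024 10 nM + anti-GST APC 50 nM final, 1.5 h. Readout TR-FRET ratio decrease vs DMSO → IC50.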
K-Ras G12C(GMP-PNP) binding to BRAF RBD, sequence (P01116 other isoform, or with tags, fused parts or gaps G12C): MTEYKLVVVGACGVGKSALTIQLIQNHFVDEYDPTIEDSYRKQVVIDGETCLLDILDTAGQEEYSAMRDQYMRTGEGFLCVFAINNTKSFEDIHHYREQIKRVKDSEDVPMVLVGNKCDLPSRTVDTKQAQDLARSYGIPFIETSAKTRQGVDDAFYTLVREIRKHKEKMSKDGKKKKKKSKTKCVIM
K-Ras G12C(GMP-PNP) binding to BRAF RBD, sequence (P62937 whole entry): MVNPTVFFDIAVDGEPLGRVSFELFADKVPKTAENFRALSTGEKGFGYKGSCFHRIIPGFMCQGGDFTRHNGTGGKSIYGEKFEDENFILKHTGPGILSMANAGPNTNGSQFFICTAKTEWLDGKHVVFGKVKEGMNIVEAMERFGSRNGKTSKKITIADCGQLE

KRAS G13D, sequence (P01116 other isoform, or with tags, fused parts or gaps G13D): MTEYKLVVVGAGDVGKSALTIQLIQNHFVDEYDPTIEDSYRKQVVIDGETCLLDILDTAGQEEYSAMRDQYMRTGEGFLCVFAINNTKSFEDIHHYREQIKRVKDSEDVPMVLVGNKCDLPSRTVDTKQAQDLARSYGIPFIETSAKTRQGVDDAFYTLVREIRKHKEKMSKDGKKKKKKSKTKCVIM
KRAS G13D, sequence (P62937 whole entry): as the sequence (P62937 whole entry) above
NRAS Q61R, sequence (P01111 whole entry Q61R): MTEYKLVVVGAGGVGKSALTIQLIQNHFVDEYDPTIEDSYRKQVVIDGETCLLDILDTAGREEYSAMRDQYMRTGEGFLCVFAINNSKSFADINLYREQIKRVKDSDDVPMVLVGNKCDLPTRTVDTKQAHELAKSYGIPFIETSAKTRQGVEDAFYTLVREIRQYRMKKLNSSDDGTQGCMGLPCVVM
NRAS Q61R, sequence (P62937 whole entry): as the sequence (P62937 whole entry) above
NRAS WT, sequence (P01111 whole entry): as the sequence (P01111 whole entry Q61R) above, with R61Q counted along it
NRAS WT, sequence (P62937 whole entry): as the sequence (P62937 whole entry) above
KRAS G12S, sequence (P01116 other isoform, or with tags, fused parts or gaps G12S): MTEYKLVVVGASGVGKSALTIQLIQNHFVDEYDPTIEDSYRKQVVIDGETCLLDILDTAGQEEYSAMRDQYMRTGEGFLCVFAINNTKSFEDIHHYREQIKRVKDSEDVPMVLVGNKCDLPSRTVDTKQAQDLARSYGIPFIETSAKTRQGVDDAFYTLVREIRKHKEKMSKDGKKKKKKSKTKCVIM
KRAS G12S, sequence (P62937 whole entry): as the sequence (P62937 whole entry) above
KRAS G13C, sequence (P01116 other isoform, or with tags, fused parts or gaps G13C): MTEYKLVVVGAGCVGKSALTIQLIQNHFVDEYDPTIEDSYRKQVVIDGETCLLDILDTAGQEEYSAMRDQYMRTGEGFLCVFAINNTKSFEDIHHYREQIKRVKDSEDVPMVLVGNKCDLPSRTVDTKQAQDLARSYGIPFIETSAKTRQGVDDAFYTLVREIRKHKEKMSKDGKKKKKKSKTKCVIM
KRAS G13C, sequence (P62937 whole entry): as the sequence (P62937 whole entry) above
KRAS G12D, sequence (P01116 other isoform, or with tags, fused parts or gaps G12D): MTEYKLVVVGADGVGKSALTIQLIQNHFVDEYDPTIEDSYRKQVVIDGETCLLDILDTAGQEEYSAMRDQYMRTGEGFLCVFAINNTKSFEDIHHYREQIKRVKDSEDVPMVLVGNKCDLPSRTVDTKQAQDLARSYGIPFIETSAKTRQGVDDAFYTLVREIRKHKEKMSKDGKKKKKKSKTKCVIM
KRAS G12D, sequence (P62937 whole entry): as the sequence (P62937 whole entry) above
KRAS Q61H, sequence (P01116 other isoform, or with tags, fused parts or gaps Q61H): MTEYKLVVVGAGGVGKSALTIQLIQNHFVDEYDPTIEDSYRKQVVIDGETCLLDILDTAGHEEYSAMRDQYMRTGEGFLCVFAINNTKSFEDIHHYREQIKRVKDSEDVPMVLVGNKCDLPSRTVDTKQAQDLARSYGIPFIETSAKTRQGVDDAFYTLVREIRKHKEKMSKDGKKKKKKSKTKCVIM
KRAS Q61H, sequence (P62937 whole entry): as the sequence (P62937 whole entry) above
KRAS WT, sequence (P01116 other isoform, or with tags, fused parts or gaps): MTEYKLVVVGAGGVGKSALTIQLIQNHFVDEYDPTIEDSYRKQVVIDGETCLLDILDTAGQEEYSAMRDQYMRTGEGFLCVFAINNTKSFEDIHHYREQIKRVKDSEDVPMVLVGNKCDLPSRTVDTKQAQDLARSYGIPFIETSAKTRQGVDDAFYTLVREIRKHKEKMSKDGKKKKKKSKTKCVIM
KRAS WT, sequence (P62937 whole entry): as the sequence (P62937 whole entry) above
KRAS G12C, sequence (P01116-2 other isoform, or with tags, fused parts or gaps G12C): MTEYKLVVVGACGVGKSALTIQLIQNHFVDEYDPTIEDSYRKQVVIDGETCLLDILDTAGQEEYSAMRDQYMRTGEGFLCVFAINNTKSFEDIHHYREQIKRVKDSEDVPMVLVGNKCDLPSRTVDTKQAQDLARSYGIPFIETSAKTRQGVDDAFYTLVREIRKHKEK
KRAS G12C, sequence (P62937 whole entry): as the sequence (P62937 whole entry) above
NRAS Q61K, sequence (P01111 whole entry Q61K): as the sequence (P01111 whole entry Q61R) above, with R61K counted along it
NRAS Q61K, sequence (P62937 whole entry): as the sequence (P62937 whole entry) above
KRAS G12V, sequence (P01116 other isoform, or with tags, fused parts or gaps G12V): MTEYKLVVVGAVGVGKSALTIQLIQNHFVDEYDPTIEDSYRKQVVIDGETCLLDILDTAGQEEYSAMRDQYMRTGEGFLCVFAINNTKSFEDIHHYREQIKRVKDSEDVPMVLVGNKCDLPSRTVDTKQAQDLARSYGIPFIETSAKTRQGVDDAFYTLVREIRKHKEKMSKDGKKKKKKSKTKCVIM
KRAS G12V, sequence (P62937 whole entry): as the sequence (P62937 whole entry) above
NRAS G12C, sequence (P01111 whole entry G12C): as the sequence (P01111 whole entry Q61R) above, with G12C, R61Q counted along it
NRAS G12C, sequence (P62937 whole entry): as the sequence (P62937 whole entry) above

`CCn1c(-c2cccnc2[C@H](C)OC)c2c3cc(ccc31)-c1csc(n1)C[C@H](NC(=O)[C@H](C(C)C)N(C)C(=O)N1CCC1C(=O)O)C(=O)N1CCC[C@H](N1)C(=O)OCC(C)(C)C2` (some centres unmarked) [Compound A271]: the IC50 at KRAS WT is 1000 to 10000 nM; at KRAS G12D it was above 10000 nM; on KRAS G12V, 1000 to 10000 nM; on KRAS G12S it was 1000 to 10000 nM; at NRAS Q61R, 1000 to 10000 nM; at KRAS G12C it was 1000 to 10000 nM. Moreover, the IC50 on KRAS G13D is above 10000 nM; on NRAS G12C, 1000 to 10000 nM; on KRAS Q61H it was 100 to 1000 nM; on NRAS Q61K, 100 to 1000 nM; against NRAS WT, 1000 to 10000 nM; at KRAS G13C, 1000 to 10000 nM. Besides, the concentration for half-maximal inhibition (IC50) (with NCI-H358 (K-Ras G12C); in test [1]; in [2]) was above 10000 nM throughout.

Turning to `CCn1c(-c2cccnc2[C@H](C)OC)c2c3cc(ccc31)-c1csc(n1)C[C@H](NC(=O)[C@H](C(C)C)N(C)C(=O)N(C)C[C@H]1CCN1C)C(=O)N1CCC[C@H](N1)C(=O)OCC(C)(C)C2` [Compound A469], the IC50 on KRAS WT is 100 to 1000 nM; on KRAS G12D, 100 to 1000 nM; on KRAS G12V it was 1000 to 10000 nM; on KRAS G12S, 100 to 1000 nM; against NRAS Q61R, 1000 to 10000 nM; on KRAS G12C, 100 to 1000 nM. Further, the IC50 on KRAS G13D, at NRAS G12C, against KRAS Q61H, on NRAS Q61K, against NRAS WT and on KRAS G13C was 100 to 1000 nM in each case. For the same molecule, the IC50 (in the test with NCI-H358 (K-Ras G12C); in test [1]; in test [2]) was 100 to 1000 nM throughout.

`CCn1c(-c2cccnc2[C@H](C)OC)c2c3cc(ccc31)-c1csc(n1)C[C@H](NC(=O)[C@H](C(C)C)N(C)C(=O)N1CC[C@@]13CCCN(C)C3)C(=O)N1CCC[C@H](N1)C(=O)OCC(C)(C)C2` [Compound A468]: the IC50 at KRAS WT was in the range of 100 to 1000 nM; at KRAS G12D, 100 to 1000 nM; on KRAS G12V, 1000 to 10000 nM; at KRAS G12S it was 100 to 1000 nM; on NRAS Q61R it was 100 to 1000 nM; at KRAS G12C, 100 to 1000 nM. Also, the IC50 at KRAS G13D was in the range of 100 to 1000 nM; at NRAS G12C it was 100 to 1000 nM; against KRAS Q61H, 10 to 100 nM; against NRAS Q61K it was 100 to 1000 nM; against NRAS WT, 100 to 1000 nM; on KRAS G13C, 100 to 1000 nM. The values for the IC50 (in the test with NCI-H358 (K-Ras G12C); in test [1]; in test [2]) were 10 to 100 nM, 100 to 1000 nM and 100 to 1000 nM, respectively.

`CCn1c(-c2cccnc2[C@H](C)OC)c2c3cc(ccc31)-c1cc(O)cc(c1)C[C@H](NC(=O)C(C)C1CCOCC1)C(=O)N1CCC[C@H](N1)C(=O)OCC(C)(C)C2` (some centres unmarked) [Compound A236]: the IC50 on KRAS WT was 100 to 1000 nM and 1000 to 10000 nM; at KRAS G12D, 1000 to 10000 nM and > 10000 nM; on KRAS G12V it was 100 to 1000 nM and 1000 to 10000 nM; at KRAS G12S, 100 to 1000 nM and 1000 to 10000 nM; against NRAS Q61R, 1000 to 10000 nM; at KRAS G12C it was 100 to 1000 nM and 1000 to 10000 nM. The IC50 was 100 to 1000 nM and 1000 to 10000 nM at KRAS G13D; 100 to 1000 nM and 1000 to 10000 nM at NRAS G12C; 10 to 100 nM on KRAS Q61H; 100 to 1000 nM at NRAS Q61K; 100 to 1000 nM on NRAS WT; 100 to 1000 nM at KRAS G13C. Also, the IC50 (with NCI-H358 (K-Ras G12C); in [2]) was above 10000 nM in each case.

A word on the IC50: it is the concentration needed to halve the response being measured.

(Values after patent US20250195521A1 (Revolution Medicines, Inc., priority 2020, published 2025).)
